Test results reported in article PMC8691750, “Euphorbia Factor L2 ameliorates the Progression of K/BxN Serum-Induced Arthritis by Blocking TLR7 Mediated IRAK4/IKKβ/IRF5 and NF-kB Signaling Pathways” (Frontiers in Pharmacology, 2021).
Several values for one entry are separate records, joined by “and”; a condition that tells them apart may be missing. Identical values can stand only once.

System: TLR signalling pathway genes
Assay: Toll-like Receptor Pathway PCR array of ankles
Assay type: in vivo, C57BL/6 mice
Conditions: for S40/SIA (fold change) / log2(fold change) S40/SIA: S40 group vs SIA group
Method: Total RNA was isolated from the right ankles using the TRIzol Reagent (Invitrogen) and purified with RNeasy Mini Kit and RNase-Free DNase Set (Qiagen). RNA quality was determined using a spectrophotometer and was reversely transcribed using Wcgene® mRNA cDNA kit. The complementary DNA was used on the Toll-like Receptor Pathway PCR Array plate (Wcgene® biotech, China).

[1] = ankles of STA mice, single-animal samples S401-S405
[2] = ankles of STA mice, single-animal samples S401-S405, relative to GAPDH
[3] = ankles, STA mice + EFL2 i.p., individual mice EFL2-1 to EFL2-4

C=C1C(OC(=O)c2ccccc2)CC2C(C=C(C)C(=O)C3(OC(C)=O)CC(C)C(OC(=O)c4ccccc4)C3C1OC(C)=O)C2(C)C (stereo not shown) [EFL2, Euphorbia factor L2]
S40/SIA (fold change) (Tlr8 mRNA): 0.1573 | log2(fold change) S40/SIA (Tlr8 mRNA): -2.668 | S40/SIA (fold change) (Tlr9 mRNA): 0.05745 | log2(fold change) S40/SIA (Tlr9 mRNA): -4.122 | S40/SIA (fold change) (Tnf mRNA): 0.271 | log2(fold change) S40/SIA (Tnf mRNA): -1.884 | S40/SIA (fold change) (Tnfaip3 mRNA): 0.2367 | log2(fold change) S40/SIA (Tnfaip3 mRNA): -2.079 | S40/SIA (fold change) (Tollip mRNA): 0.6335 | log2(fold change) S40/SIA (Tollip mRNA): -0.6586 | S40/SIA (fold change) (Traf6 mRNA): 0.511 | log2(fold change) S40/SIA (Traf6 mRNA): -0.9687 | S40/SIA (fold change) (Ube2v1 mRNA): 0.4284 | log2(fold change) S40/SIA (Ube2v1 mRNA): -1.223 | Rel Cт [1]: 30.17 and 31.86 and 31.19 | Rela Cт [1]: 27.60 and 28.97 and 29.92 | Ripk2 Cт [1]: 31.20 and 31.97 and 31.38 | Tbk1 Cт [1]: 35.01 and 33.84 and 30.91 | Tbp Cт [1]: 32.79 and 35.04 and 35.08 and 35.26 | Ticam1 Cт [1]: 30.63 and 31.57 and 31.92 and 31.40 | Ticam2 Cт [1]: 31.98 and 32.33 and 32.54 and 32.28 | Tirap Cт [1]: 31.54 and 33.23 and 32.87 | Tlr1 Cт [1]: 31.47 and 31.48 and 31.36 and 33.05 | Tlr2 Cт [1]: 29.79 and 30.45 and 30.70 | Tlr3 Cт [1]: 31.62 and 33.01 and 32.92 and 28.89 | Tlr4 Cт [1]: 29.41 and 30.97 and 30.43 and 30.84 | Tlr5 Cт [1]: 33.11 and 33.16 and 33.55 and 34.74 | Tlr6 Cт [1]: 32.61 and 34.42 and 28.05 | Tlr7 Cт [1]: 33.17 and 34.60 and 34.75 | Tlr8 Cт [1]: 31.72 and 32.87 | Tlr9 Cт [1]: 33.32 and 37.49 | Tnf Cт [1]: 33.75 and 35.02 and 34.91 | Tnfaip3 Cт [1]: 31.00 and 33.42 and 32.49 and 32.20 | Tnfrsf1a Cт [1]: 27.55 and 28.63 and 28.76 | Tollip Cт [1]: 29.42 and 30.42 and 30.55 | Tradd Cт [1]: 31.88 and 32.32 and 32.17 and 32.45 | Traf6 Cт [1]: 30.31 and 30.69 and 31.10 and 30.54 | Ube2n Cт [1]: 27.18 and 28.39 and 28.43 and 28.55 | Ube2v1 Cт [1]: 26.90 and 29.51 and 28.01 and 27.92 | Rel fold-GAPDH [2]: 0.005407 and 0.004928 and 0.005486 | Ripk2 fold-GAPDH [2]: 0.002639 and 0.004565 and 0.002897 | Tlr2 fold-GAPDH [2]: 0.007046 and 0.01307 and 0.007729 | Tlr8 fold-GAPDH [2]: 0.001839 and 0.001034 | Tnf fold-GAPDH [2]: 0.0004529 and 0.0005528 and 0.0004186 | Tnfaip3 fold-GAPDH [2]: 0.003028 and 0.001676 and 0.002239 and 0.001643 | Tollip fold-GAPDH [2]: 0.009094 and 0.01333 and 0.008592 | Becn1 relative expression to GAPDH [3]: 0.001891 and 0.007192 and 0.004096 | Btk relative expression to GAPDH [3]: 0.001831 and 0.004678 and 0.001063 and 0.002403 | Casp8 relative expression to GAPDH [3]: 0.01358 and 0.009475 and 0.01634 | Ccl2 relative expression to GAPDH [3]: 0.00629 and 0.0002036 and 0.01529 | Ccl11 relative expression to GAPDH [3]: 0.008836 and 0.01327 and 0.005579 and 0.01036 | Cd86 relative expression to GAPDH [3]: 0.0005777 and 0.0007714 and 0.0003428 and 0.0007215 | Chuk relative expression to GAPDH [3]: 0.01087 and 0.008829 and 0.008767 | Clec4e relative expression to GAPDH [3]: 0.002249 and 0.0004993 and 4.1493e-5 and 0.0002637 | Cxcl10 relative expression to GAPDH [3]: 2.1064e-5 | Elk1 relative expression to GAPDH [3]: 0.005652 and 0.006734 and 0.002589 and 0.006009 | Fadd relative expression to GAPDH [3]: 0.0009207 and 0.00158 and 0.0009332 and 0.001977 | Hras1 relative expression to GAPDH [3]: 0.02746 and 0.02268 and 0.01475 and 0.02419 | Hspd1 relative expression to GAPDH [3]: 0.02518 and 0.003019 and 0.01313 and 0.02796 | IRF5 relative expression to GAPDH [3]: 0.004692 and 0.004033 and 0.001353 and 0.004631 | Il1b relative expression to GAPDH [3]: 0.0009616 and 0.0008 and 0.0006699 and 0.005996 | Il6 relative expression to GAPDH [3]: 0.0008677 and 0.0003997 and 0.0006556 and 0.002971 | Il10 relative expression to GAPDH [3]: 0.0002257 and 7.048e-5 and 9.932e-5 and 0.0001425 | Ilr1 relative expression to GAPDH [3]: 0.01561 and 0.01023 and 0.00774 and 0.01383 | Irak2 relative expression to GAPDH [3]: 0.004831 and 0.004355 and 0.002516 and 0.003024 | Irak3 relative expression to GAPDH [3]: 0.02176 and 0.01462 and 0.00868 and 0.01639 | Irf1 relative expression to GAPDH [3]: 0.008232 and 0.006938 | Irf3 relative expression to GAPDH [3]: 0.01143 and 0.004857 and 0.01116 | Jun relative expression to GAPDH [3]: 0.0443 and 0.03642 and 0.03036 and 0.04078 | Ly96 relative expression to GAPDH [3]: 0.008818 and 0.008037 and 0.003545 and 0.00648
